Measurements: patent US20060069132A1, “Azolecarboxamide herbicides” (priority 2004, published 2006)

Legend:
wheat = assay: Test B postemergence herbicide test; assay type: in vivo, Triticum aestivum; design: key to Wheat plant response rating: 0 = no effect, 100 = complete control; settings: postemergence, 500 g ai/ha; visual rating, scale 0 (no effect) to 100 (complete control)
Outline: (§1)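 Scale 0–100: zero equals no visible effect, 100 complete control, judged by eye relative to controls. Timing: 13 to 15 days in greenhouse post-treatment. Growth stage at spraying: two leaves (paddy) or one to four leaves, 2–18 cm (postemergence).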

rice [1] = assay: Test B flooded paddy test; assay type: in vivo, Oryza sativa; settings: 1000 g ai/ha, visual rating, scale 0 to 100 (0 no effect, 100 complete control), 13 to 15 days
Outline: (§2)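 Greenhouse test; postemergence application to plants at 1–4 leaves (2–18 cm); paddy species at 2 leaves; evaluated visually vs controls at 13–15 days; scale 0–100 (100 = complete control).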

barnyardgrass [2] = assay: Test A pre-/postemergence herbicide test; assay type: in vivo, Echinochloa crus-galli
Outline: (§3)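 Seeds sown in sandy loam received a preemergence directed soil spray of compound in non-phytotoxic solvent with surfactant; postemergence plants (2–10 cm, one- to two-leaf stage) were sprayed to runoff at the same time. After ~10 days in greenhouse, injury was rated visually versus untreated controls (0 = no effect, 100 = complete control).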

barnyardgrass [3] = assay: Test B flooded paddy test; assay type: in vivo, Echinochloa crus-galli; settings: 1000 g ai/ha, visual rating, scale 0 to 100 (0 no effect, 100 complete control), 13 to 15 days
Outline: as §2

redroot pigweed = assay: Test A pre-/postemergence herbicide test; assay type: in vivo, Amaranthus retroflexus
Outline: as §3

large crabgrass [4] = assay: Test A pre-/postemergence herbicide test; assay type: in vivo, Digitaria sanguinalis
Outline: as §3

blackgrass = assay: Test B postemergence herbicide test; assay type: in vivo, Alopecurus myosuroides; settings: postemergence, visual rating, scale 0 (no effect) to 100 (complete control)
Outline: as §2

pigweed = assay: Test B pre-/postemergence herbicide test; assay type: in vivo, Amaranthus retroflexus; settings: for Plant response rating, Pigweed: preemergence; for Pigweed plant response rating: postemergence, visual rating, scale 0 (no effect) to 100 (complete control)
Outline: (§4)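 Greenhouse pot assay with simultaneous preemergence (treated seed) and postemergence (2–18 cm seedlings) applications of surfactant-containing, non-phytotoxic solvent formulations. Response scored visually 13–15 days later on a 0–100 scale, 100 meaning complete control.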

barnyardgrass [5] = assay: Test B pre-/postemergence herbicide test; assay type: in vivo, Echinochloa crus-galli; settings: for Plant response rating, Barnyardgrass: preemergence; for Barnyardgrass plant response rating: postemergence, visual rating, scale 0 (no effect) to 100 (complete control)
Outline: as §4

[6] = test system: small flower umbrella sedge; assay: Test B flooded paddy test; assay type: in vivo, Cyperus difformis; settings: 1000 g ai/ha, visual rating, scale 0 to 100 (0 no effect, 100 complete control), 13 to 15 days
Outline: as §2

lambsquarters = assay: Test B pre-/postemergence herbicide test; assay type: in vivo, Chenopodium album; settings: for Plant response rating, Lambsquarters: preemergence; for Lambsquarters plant response rating: postemergence, visual rating, scale 0 (no effect) to 100 (complete control)
Outline: as §4

wild oat = assay: Test B postemergence herbicide test; assay type: in vivo, Avena fatua; settings: postemergence, visual rating, scale 0 (no effect) to 100 (complete control)
Outline: as §1

cocklebur = assay: Test B pre-/postemergence herbicide test; assay type: in vivo, Xanthium strumarium; settings: for Plant response rating, Cocklebur: preemergence; for Cocklebur plant response rating: postemergence, visual rating, scale 0 (no effect) to 100 (complete control)
Outline: as §4

ducksalad = assay: Test B flooded paddy test; assay type: in vivo, Heteranthera limosa; settings: 1000 g ai/ha, visual rating, scale 0 to 100 (0 no effect, 100 complete control), 13 to 15 days
Outline: as §2

giant foxtail [7] = assay: Test B pre-/postemergence herbicide test; assay type: in vivo, Setaria faberi; settings: for Plant response rating, Foxtail, Giant: preemergence; for Foxtail, Giant plant response rating: postemergence, visual rating, scale 0 (no effect) to 100 (complete control)
Outline: as §4

giant foxtail [8] = assay: Test A pre-/postemergence herbicide test; assay type: in vivo, Setaria faberi
Outline: as §3

velvetleaf [9] = assay: Test B pre-/postemergence herbicide test; assay type: in vivo, Abutilon theophrasti; settings: for Plant response rating, Velvetleaf: preemergence; for Velvetleaf plant response rating: postemergence, visual rating, scale 0 (no effect) to 100 (complete control)
Outline: as §4

velvetleaf [10] = assay: Test A pre-/postemergence herbicide test; assay type: in vivo, Abutilon theophrasti
Outline: as §3

morningglory [11] = assay: Test A pre-/postemergence herbicide test; assay type: in vivo, Ipomoea spp.
Outline: as §3

rice [12] = assay: Test B pre-/postemergence herbicide test; assay type: in vivo, Oryza sativa; settings: preemergence
Outline: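 Species tested were Echinochloa crus-galli, Ipomoea coccinea, Xanthium strumarium and Oryza sativa, treated both before emergence and at the 1- to 4-leaf stage; rice and barnyardgrass were also tested under flooding at 2 leaves. Greenhouse incubation lasted 13–15 days before visual 0–100 scoring.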

large crabgrass [13] = assay: Test B pre-/postemergence herbicide test; assay type: in vivo, Digitaria sanguinalis; settings: for Plant response rating, Crabgrass, Large: preemergence; for Crabgrass, Large plant response rating: postemergence, visual rating, scale 0 (no effect) to 100 (complete control)
Outline: as §4

Surinam grass = assay: Test B pre-/postemergence herbicide test; assay type: in vivo, Urochloa decumbens; settings: for Plant response rating, Surinam Grass: preemergence; for Surinam Grass plant response rating: postemergence, visual rating, scale 0 (no effect) to 100 (complete control)
Outline: as §4

morningglory [14] = assay: Test B pre-/postemergence herbicide test; assay type: in vivo, Ipomoea coccinea; settings: for Plant response rating, Morningglory: preemergence; for Morningglory plant response rating: postemergence, visual rating, scale 0 (no effect) to 100 (complete control)
Outline: as §4

corn = assay: Test B pre-/postemergence herbicide test; assay type: in vivo, Zea mays; settings: for Plant response rating, Corn: preemergence; for Corn plant response rating: postemergence, visual rating, scale 0 (no effect) to 100 (complete control)
Outline: as §4

[15] = Postemergence, 500 g ai/ha, 0 to 100 scale, 0 no effect, 100 complete control
[16] = Postemergence, 2000 g ai/ha, 0 to 100 scale, 0 no effect, 100 complete control
[17] = Preemergence, 500 g ai/ha, visual rating, 0 to 100 scale (0 no effect, 100 complete control)
[18] = Preemergence, 2000 g ai/ha, visual rating, 0 to 100 scale (0 no effect, 100 complete control)
[19] = preemergence, 500 g ai/ha, visual injury, 0 to 100 scale (0 no effect, 100 complete control)
[20] = 500 g ai/ha, visual rating 0-100, 0 no effect, 100 complete control
[21] = 125 g ai/ha, 0 to 100 scale, 0 is no effect, 100 is complete control

For `CCn1nc(C(C)(C)C)cc1C(=O)Nc1nc(OC)cc(OC)n1` [Compound 166], the “Wheat plant response rating” value (wheat) was 0, the “Rice plant response rating” value (rice [1]) was 0 and the “Barnyardgrass plant response rating” value (barnyardgrass [2]; [15]) was 0. For the same compound, the “Plant response rating, Barnyardgrass” value (barnyardgrass [2]; [16]) was 10, the “Barnyardgrass plant response rating” value (barnyardgrass [2]; [17]) was 0 and the “Barnyardgrass plant response rating” value (barnyardgrass [2]; [18]) was 10. For the same compound, the “Barnyardgrass plant response rating” value (barnyardgrass [3]) was 0, the “Pigweed plant response rating” value (redroot pigweed; [15]) was 20 and the “Plant response rating, Pigweed” value (redroot pigweed; [16]) was 25. The “Pigweed plant response rating” value (redroot pigweed; [18]) was 10, the “Pigweed plant response rating” value (redroot pigweed; [19]) was 0 and the “Crabgrass, Large plant response rating” value (large crabgrass [4]; [15]) was 0. The “Plant response rating, Crabgrass, Large” value (large crabgrass [4]; [16]) was 0, the “Crabgrass, Large plant response rating” value (large crabgrass [4]; [17]) was 0 and the “Crabgrass, Large plant response rating” value (large crabgrass [4]; [18]) was 30. The “Blackgrass plant response rating” value (blackgrass; 125 g ai/ha) was 0, the “Blackgrass plant response rating” value (blackgrass; 500 g ai/ha) was 0 and the “Plant response rating, Pigweed” value (pigweed; [20]) was 0. The “Pigweed plant response rating” value (pigweed; 125 g ai/ha) was 0, the “Pigweed plant response rating” value (pigweed; 500 g ai/ha) was 0 and the “Plant response rating, Pigweed” value (pigweed; [21]) was 0. For the same compound, the “Plant response rating, Barnyardgrass” value (barnyardgrass [5]; [20]) was 0, the “Barnyardgrass plant response rating” value (barnyardgrass [5]; 125 g ai/ha) was 0 and the “Barnyardgrass plant response rating” value (barnyardgrass [5]; 500 g ai/ha) was 0. For the same compound, the “Plant response rating, Barnyardgrass” value (barnyardgrass [5]; [21]) was 0, the “Sedge, Umbrella plant response rating” value [6] was 30 and the “Plant response rating, Lambsquarters” value (lambsquarters; [20]) was 0. For the same compound, the “Lambsquarters plant response rating” value (lambsquarters; 125 g ai/ha) was 0, the “Lambsquarters plant response rating” value (lambsquarters; 500 g ai/ha) was 0 and the “Plant response rating, Lambsquarters” value (lambsquarters; [21]) was 0. For the same compound, the “Oat, Wild plant response rating” value (wild oat; 125 g ai/ha) was 0, the “Oat, Wild plant response rating” value (wild oat; 500 g ai/ha) was 0 and the “Plant response rating, Cocklebur” value (cocklebur; [20]) was 0. For the same compound, the “Cocklebur plant response rating” value (cocklebur; 125 g ai/ha) was 0, the “Cocklebur plant response rating” value (cocklebur; 500 g ai/ha) was 0 and the “Plant response rating, Cocklebur” value (cocklebur; [21]) was 0. The “Ducksalad plant response rating” value (ducksalad) was 0, the “Plant response rating, Foxtail, Giant” value (giant foxtail [7]; [20]) was 0 and the “Foxtail, Giant plant response rating” value (giant foxtail [7]; 125 g ai/ha) was 0. The “Foxtail, Giant plant response rating” value (giant foxtail [7]; 500 g ai/ha) was 0, the “Plant response rating, Foxtail, Giant” value (giant foxtail [7]; [21]) was 0 and the “Foxtail, Giant plant response rating” value (giant foxtail [8]; [15]) was 0. The “Plant response rating, Foxtail, Giant” value (giant foxtail [8]; [16]) was 20, the “Foxtail, Giant plant response rating” value (giant foxtail [8]; [17]) was 0 and the “Foxtail, Giant plant response rating” value (giant foxtail [8]; [18]) was 10. For the same compound, the “Plant response rating, Velvetleaf” value (velvetleaf [9]; [20]) was 0, the “Velvetleaf plant response rating” value (velvetleaf [9]; 125 g ai/ha) was 0 and the “Velvetleaf plant response rating” value (velvetleaf [9]; 500 g ai/ha) was 0. The “Plant response rating, Velvetleaf” value (velvetleaf [9]; [21]) was 0, the “Velvetleaf plant response rating” value (velvetleaf [10]; [15]) was 20 and the “Plant response rating, Velvetleaf” value (velvetleaf [10]; [16]) was 30. For the same compound, the “Velvetleaf plant response rating” value (velvetleaf [10]; [18]) was 5, the “Velvetleaf plant response rating” value (velvetleaf [10]; [19]) was 0 and the “Morningglory plant response rating” value (morningglory [11]; [15]) was 0. For the same compound, the “Plant response rating, Morningglory” value (morningglory [11]; [16]) was 10, the “Morningglory plant response rating” value (morningglory [11]; [17]) was 0 and the “Morningglory plant response rating” value (morningglory [11]; [18]) was 5. For the same compound, the “Plant response rating, Rice” value (rice [12]; [20]) was 0, the “Plant response rating, Rice” value (rice [12]; [21]) was 0 and the “Plant response rating, Crabgrass, Large” value (large crabgrass [13]; [20]) was 0. The “Crabgrass, Large plant response rating” value (large crabgrass [13]; 125 g ai/ha) was 0, the “Crabgrass, Large plant response rating” value (large crabgrass [13]; 500 g ai/ha) was 0 and the “Plant response rating, Crabgrass, Large” value (large crabgrass [13]; [21]) was 0. The “Plant response rating, Surinam Grass” value (Surinam grass; [20]) was 0, the “Surinam Grass plant response rating” value (Surinam grass; 125 g ai/ha) was 0 and the “Surinam Grass plant response rating” value (Surinam grass; 500 g ai/ha) was 0. For the same compound, the “Plant response rating, Surinam Grass” value (Surinam grass; [21]) was 0, the “Plant response rating, Morningglory” value (morningglory [14]; [20]) was 0 and the “Morningglory plant response rating” value (morningglory [14]; 125 g ai/ha) was 0. For the same compound, the “Morningglory plant response rating” value (morningglory [14]; 500 g ai/ha) was 0, the “Plant response rating, Morningglory” value (morningglory [14]; [21]) was 0 and the “Plant response rating, Corn” value (corn; [20]) was 0. For the same compound, the “Corn plant response rating” value (corn; 125 g ai/ha) was 0, the “Corn plant response rating” value (corn; 500 g ai/ha) was 0 and the “Plant response rating, Corn” value (corn; [21]) was 0.
